The text below walks through data of patent EP1598418A1, “STABILISED COMPOSITION FOR FLUORIMETRIC, COLORIMETRIC OR CHEMOLUMINESCENT ASSAYS, KITS CONTAINING SAME AND PRODUCTION METHOD THEREOF” (BIOTOOLS BIOTECHNOLOGICAL & MEDICAL LABORATORIES, S.A., priority 2003, dated 2004).

Holding throughout (conditions): conserved at T 4 °C, vs fresh mixture
The test system of one assay is FRET probes. Nature of the assay: Real-time amplification with desiccated, stabilised reaction mixture with FRET probes after storage (Example 1). The assay is classed as biochemical, P. falciparum.
The test system of assay [1] is streptoavidin conjugated with HRP (Str-HRP) and anti-digoxygenin conjugated with alkaline phospatase (anti-DIG-AP). Nature of the assay: Colorimetric ELISA plate activity test of desiccated, stabilised conjugates (Example 8). The assay is classed as biochemical, HPV 16. The method, then:
In 0.2 ml amplification tubes were added 100 microlitres of a 1/250 dilution in a blocking solution of the conjugate Str-HRP (Biospa). In parallel, 0.2 ml phials were prepared in which 100 microlitres were added of a 1/250 dilution in a blocking solution of anti-DIG-AP (Sigma).
For the activity assay of the conjugate anti-DIG-AP an ELISA plate was used in which the dimples had been previously coated with streptoavidin. For the activity assay of conjugate Str-HRP a plate was used instead with dimples previously coated with anti-DIG antibodies. The amplified products were incubated in each plate to allow the immobilisation of the amplicons in the plate.

Assay [2] deals with probes marked with biotin or digoxygenin groups. Nature of the assay: Synthesis of digoxygenin-marked probes with desiccated mixtures and molecular hybridisation test (Example 9).
Assay [3] relates to nucleic acids immobilised in modified glasses. Kind of assay: Colorimetric assay of stabilised nucleic acids immobilised in modified glasses (Example 10.3). Type of assay: biochemical, HPV 16. The protocol:
Approach 1. Stabilisation of supports with previously fixed nucleic acids. HPV specific probes were fixed to glass supports pre-treated with polylysiun, aldehyde, epoxy, superepoxy and silane. To do so, in each support slide 1 microlitre spots were applied of the solution of each oligonucleotide at a concentration of 20 µM in the conditions indicated for each glass format. The slides with the immobilised oligonucleotides were then coated with a thin layer of each of the stabilising mixtures and then desiccated in a vacuum oven at 25°C and 50 mbar pressure.
Approach 2. Fixation to the slides of the nucleic acids pre-mixed with the stabilising mixtures. A mixture was prepared of each of the probes with the suitable volumes of the stabilising mixtures described in Table 1. Then the mixtures of oligonucleotides were applied to the various slides with the fixing conditions indicated for each glass format.
To test the viability of each slide prepared, a colorimetric assay was performed with formation of precipitate products. To do so, the slides were washed for 5 minutes in PBS 1X at room temperature to eliminate the protective layer. Then the slides were incubated in the presence of an amplified and previously denatured HPV 16 product using the probes A11 and A12.

Assay [4] relates to Anti-digoxygenin antibodies. Nature of the assay: Colorimetric assay of stabilised proteins immobilised in modified glasses (Example 10.4). Type of assay: biochemical, P. falciparum. The protocol: To test the possibility of stabilising proteins that have been previously immobilised in pre-treated glass supports, the usual format of microarray systems, two different alternatives were tested as in the previous experiment.
Approach 1. Stabilisation of supports with previously fixed protein. Anti-digoxygenin antibodies were fixed to glass supports pre-treated with aldehyde. To do so, in each support slide 1 microlitre spots were applied of the solution of each protein at a concentration of 30 ng/µl. The slides with the immobilised protein were then coated with a thin layer of each of the stabilising mixtures and then desiccated in a vacuum oven at 25°C and 50 mbar pressure.
Approach 2. Fixation to the slides of the protein pre-mixed with the stabilising mixtures. A mixture was prepared of each of the probes with the suitable volumes of the stabilising mixtures described in Table 1. Then the mixtures of protein were applied to the various slides with the fixing conditions indicated for each glass format.
To test the viability of each slide prepared, a colorimetric assay was performed with formation of precipitate products. To do so, the slides were washed for 5 minutes in PBS 1X at room temperature to eliminate the protective layer.

The test system of another assay is Scorpion probes. Kind of assay: Real-time amplification with desiccated, stabilised reaction mixture with Scorpion probes after storage (Example 4). Type of assay: biochemical, M. tuberculosis.
Assay [5] has as its system oligonucleotides chemically modified by including biotin and/or digoxygenin groups. Nature of the assay: Amplification with desiccated biotin/digoxygenin oligonucleotides and colorimetric ELISA plate assay (Example 7). Type of assay: biochemical, oncogenic HPV. The method, then:
To do so, 4 oligonucleotides were designed that hybridised with the genome of region E6-E7 of oncogenic HPV species.
To do so, an ELISA microplate with a high-binding capacity to streptoavidin (Biospa) was activated following a standard fixing protocol. Then, after blocking the plate by incubation with gelatine, the amplified products of the stabilising mixtures 1, 2 and 3 described in Example 7.A were analysed by a colorimetry assay according to the following experimental process: • A.- Amplification products using an onligonucleotide marked with digoxygenin (mixture 1 in Example 7.A). The biotinated probe A11 was fixed to the plate and the amplified product was hybridised. […] The amplification product was fixed to the plate with the first biotinilate and then hybridised with the first A12 marked with digoxygenin.

Assay [6] deals with DTCS Quick Start Master Mix. Kind of assay: Sequencing reaction with desiccated, stabilised mixture with fluorescent terminators after storage (Example 6). Type of assay: biochemical, human papillomavirus. The method, then:
To test the possibility of gelling reaction mixtures for sequencing nucleic acids the CEQ 200 Dye Terminator Cycle Sequencing (DTCS) Quick Start Kit (Beckman Coulter) was employed, which uses a PCR sequencing system in a single tube by incorporating four different fluorescent terminators. The sequencing reactions were later analysed in a CEQ 2000 XL DNA Analysis System (Beckman Coulter) capillary electrophoresis automatic sequencing system.
Reaction mixtures were prepared containing 4 microlitres of DTCS Quick Start Master Mix, 1 microlitre of universal primer M13-17 and the suitable volume of each stabilising mixture shown in Table 1.
In parallel, in order to check the evolution of the activity of the desiccated and stabilised tubes, the same plasmid was sequenced using a fresh sequencing mixture in standard conditions. Finally, the sequencing reactions were analysed in the CEQ 200XL system following the supplier's instructions.

For assay [7], the system named is reaction mixture with SYBR Green. Nature of the assay: Real-time amplification with desiccated, stabilised reaction mixture with SYBR Green after storage (Example 5). The assay is classed as biochemical, oncogenic papillomaviruses. The method, then: To test the efficiency of intercalated fluorophores such as SYBR Green included in desiccated and stabilised reaction mixtures, reaction mixtures were prepared for amplifying a 250 bp fragment corresponding to region E6-E7 of oncogenic papillomaviruses, using the same reagents as described in Example 1. In this case the unit "DNA Engine OPTICON™ 2 System" (MJ Research) was used. […] Also to each phial was added […] of SYBR Green 1 (Molecular probes).
Various tubes were prepared as described above, adding to each the suitable volume of each stabilising mixture shown in Table 1.
In parallel, in order to check the evolution of the activity of the desiccated tubes, DNA samples were amplified using a fresh mixture in the same amplification conditions.
The result of the amplification reaction was analysed in every case by inspecting the fluorescence curve and determining the crossing point, following the instructions of the equipment software, for each reaction tube both fresh and desiccated and stabilised. […] The samples of patients infected with oncogenic HPV gave positive results in every case, while patients infected with non-oncogenic HPV, or not infected with HPV, gave negative results in every case.

Another assay relates to antidigoxygenin antibody. Nature of the assay: Colorimetry assay of stabilised protein immobilised in ELISA microplates (Example 10.2). Type of assay: biochemical, HPV. The protocol:
To do so each dimple was incubated with 1µg of antidigoxygenin antibody (Roche).
The amplified product was incubated for 30 minutes in the dimples with the antibody immobilised. The amplified products immobilised in the plate by the union of the digoxygenin group of the amplicons and the immobilised anti-digoxygenin group were analysed by a colorimetric assay. […] The colorimetric reaction was finally analysed by measuring absorption at 415 nm.

In another assay the test system is TaqMan probes. Kind of assay: Real-time amplification with desiccated, stabilised reaction mixture with TaqMan probes after storage (Example 2). Type of assay: biochemical, P. falciparum. In general terms: Quantitative PCR measures a nucleic acid by following its amplification.
In assay [8] the test system is Molecular Beacon (MB) probe. Kind of assay: Real-time amplification with desiccated, stabilised reaction mixture with Molecular Beacon probe after storage (Example 3). The assay is classed as biochemical, P. falciparum.
In assay [9] the test system is nucleic acids immobilised in ELISA microplates. Nature of the assay: Amplification and colorimetric detection with stabilised nucleic acids immobilised in ELISA microplates (Example 10.1).

As for `OC[C@H]1O[C@H](OC[C@H]2O[C@H](O[C@]3(CO)O[C@H](CO)[C@@H](O)[C@@H]3O)[C@H](O)[C@@H](O)[C@@H]2O)[C@H](O)[C@@H](O)[C@H]1O` [Rafinose], the “activity of stabilising mixtures” value in the assay with FRET probes was “+ (+, weak positive, under 50% of the activity of the fresh mixture)”; in [1], “+ (+, weak positive, under 50% of the activity of the fresh mixture)”; in assay [2], “+ (+, weak positive, under 50% of the activity of the fresh mixture)”; in [3], “+ (+, weak positive, under 50% of the activity of the fresh mixture)”; in assay [4] it was “+ (+, weak positive, under 50% of the activity of the fresh mixture)”; in the assay with Scorpion probes, “+ (+, weak positive, under 50% of the activity of the fresh mixture)”. The “activity of stabilising mixtures” value in [5] is listed as “+ (+, weak positive, under 50% of the activity of the fresh mixture)”; in assay [6] it was “+ (+, weak positive, under 50% of the activity of the fresh mixture)”; in assay [7] it was “+ (+, weak positive, under 50% of the activity of the fresh mixture)”; in the assay with antidigoxygenin antibody, “+ (+, weak positive, under 50% of the activity of the fresh mixture)”; with TaqMan probes, “+ (+, weak positive, under 50% of the activity of the fresh mixture)”; in assay [8] it was “+ (+, weak positive, under 50% of the activity of the fresh mixture)”. The “activity of stabilising mixtures” value in assay [9] is recorded as “+ (+, weak positive, under 50% of the activity of the fresh mixture)”.
For the compound `OC[C@H]1O[C@@](CO)(O[C@H]2O[C@H](CO)[C@@H](O)[C@H](O)[C@H]2O)[C@@H](O)[C@@H]1O` [Sucrose], the “activity of stabilising mixtures” value with FRET probes is “+ (+, weak positive, under 50% of the activity of the fresh mixture)”; in assay [1] it was “+ (+, weak positive, under 50% of the activity of the fresh mixture)”; in [2], “+ (+, weak positive, under 50% of the activity of the fresh mixture)”; in [3] it was “+ (+, weak positive, under 50% of the activity of the fresh mixture)”; in [4], “+ (+, weak positive, under 50% of the activity of the fresh mixture)”; in the assay with Scorpion probes it was “+ (+, weak positive, under 50% of the activity of the fresh mixture)”. The “activity of stabilising mixtures” value in [5] was “+ (+, weak positive, under 50% of the activity of the fresh mixture)”; in assay [6], “+ (+, weak positive, under 50% of the activity of the fresh mixture)”; in assay [7] it was “+ (+, weak positive, under 50% of the activity of the fresh mixture)”; in the assay on antidigoxygenin antibody, “+ (+, weak positive, under 50% of the activity of the fresh mixture)”; in the assay on TaqMan probes, “+ (+, weak positive, under 50% of the activity of the fresh mixture)”; in assay [8] it was “+ (+, weak positive, under 50% of the activity of the fresh mixture)”. The “activity of stabilising mixtures” value in assay [9] is on record as “+ (+, weak positive, under 50% of the activity of the fresh mixture)”.
